Laboratory results from patent publication US20060014704A1, “Compounds and their preparation for the treatment of Alzheimer's disease by inhibiting beta-amyloid peptide production” (priority 2004, published 2006).
Entries after “also recorded” stand apart in the source; their conditions may differ. Like-named read-outs stand apart in the source and are kept apart here.

Legend:
cell viability = assay: Cell viability of treated cells; assay type: cell-based; parameters: key to affected cell viability (Cytotoxic): Aβ42-lowering activity (“Yes”); no profound effects (“No”); non-determined (“ND”); Ginsenosides that affected cell viability are indicated as “Cytotoxic.”
Method: (§1) CHO-APP/PS1 (A) and CHO-APP/ΔE9PS1 (B) cells were treated with the indicated compounds at 50 μM for 8 hrs and the levels of secreted Aβ40 and Aβ42 were determined as described in FIG. 1. […] The PS1-ΔE9 FAD mutation diminished the Aβ42 response to Rk1 treatment (B).
Tables 1-3 Structure of ginsenosides utilized in the study and their effects on Aβ42 generation. They differ at the two or three side chains attached to the common triterpene backbone known as dammarane. The common structure skeleton for each group of ginsenosides is shown in the top panel. Ginsenosides that harbor Aβ42-lowering activity are indicated in the far right column of the tables: Aβ42-lowering activity (“Yes”), no profound effects (“No”), and non-determined (“ND”). Ginsenosides that affected cell viability are indicated as “Cytotoxic.” Abbreviation for carbohydrates are as follows: Glc, D-glucopyranosyl; Ara (pyr), L-arabinopyranosyl; Ara (fur), L-arabinofuranyosyl; Rha, L-rhamnopyranosyl.
Steaming ginseng at high temperature gave rise to additional ginsenosides with enhanced pharmacological activity, including (20S)Rg3, Rk1 and Rg5 (22-25). […] Aβ40 levels were not changed by treatment with any of the ginsenosides tested. The potency of Aβ42-lowering activity was highest with Rk1 and (20S)Rg3. […] These studies provide a structure-activity relationship between the chemical structures of ginsenosides and Aβ42-lowering activity, further providing the basis for designing additional Aβ42-lowering analogues as well as for defining a class of compounds that harbor Aβ42-lowering activity.

[1] = tested on: Aβ40 and Aβ42 production, CHO cells stably transfected with human APP695; assay: Secreted Aβ40/Aβ42 ELISA in CHO cells expressing human APP (CHO-APP cells); assay type: cell-based, Chinese hamster; parameters: key to Aβ42-lowering activity: Aβ42-lowering activity (“Yes”); no profound effects (“No”); non-determined (“ND”); Ginsenosides that affected cell viability are indicated as “Cytotoxic.”; conditions: for Aβ42-lowering activity: summary of Tables 1-3; for preference for Aβ42 vs. Aβ40 in cell-based assay: FIG. 6 / FIG. 12B; for production of Aβ42 in cells: general statement
Method: The CHO cells were treated with the indicated compounds (at 50 μg/ml) for 8 hrs. Aβ42 levels in the medium were measured by ELISA and normalized to intracellular full-length APP.
The potential effects of ginsenosides and their analogues in treating AD were examined. First, a number of ginsenosides were screened based on their effects on Aβ generation. The effects of various ginsenosides on Aβ (e.g., Aβ40 and Aβ42) production was initially accessed by incubating the Chinese hamster ovary (CHO) cells expressing human APP(CHO-APP cells) with each ginsenoside purified from unprocessed ginseng (known as “white ginseng”). These representative ginsenosides included Rb1, Rb2, Rc, Rd, Re, Re, Rg1 and Rg2 and differ in their side chains and sugar moieties.
After 8 hours of incubation, the media were collected and the levels of secreted Aβ40 and Aβ42 were determined by ELISA.

[2] = tested on: Aβ40 and Aβ42 production, CHO-APP/PS1 cells; assay: Secreted Aβ ELISA in CHO-APP/PS1 cells (wild-type PS1); assay type: cell-based, Chinese hamster; conditions: for secretion of Aβ42: heat-processing derived ginsenosides; for secretion of Aβ42 / potency of Aβ42-reducing activity (rank): 50 μM, 8 hrs, FIG. 11
Method: (§2) The effects of Rg5 on the Aβ42 generation were much smaller as compared to Rgk351 and Rk1.
(§3) FIG. 10 depicts the effects of native ginsenosides on Aβ42 production. CHO cells stably transfected with human APP695 together with either wild-type (A, CHO-APP/PS1 cells) or ΔE9 FAD mutant (B, CHO-APP/ΔE9PS1 cells) forms of PS1 were used. Cells were treated with the indicated compounds (at 50 μM) for 8 hrs. Levels of secreted Aβ40 and Aβ42 in the medium were determined by ELISA and normalized to intracellular full-length APP. In CHO-APP/PS1 cells, average Aβ amounts in control samples were 320 pM for Aβ40 and 79 pM for Aβ42. The relative levels of Aβ and Aβ42 were normalized to values obtained from non-treated and vehicle-treated cells and are shown as % to control+s.d.). One of three representative experiments are shown.
as §1

[3] = molecular target: T1, γ-secretase cleavage of Notch1 (NICD) (Homo sapiens, UniProt P49768); assay: Cell-free generation of NICD from membrane fractions of 293 cells overexpressing Notch-AE; assay type: biochemical
T1 construct: Membrane fractions isolated from 293 cells overexpressing either APP (A), Notch-AE (B) or p75-AE (C); endogenous in cells; host or cells: 293 cells (membrane fractions); only the substrates APP, Notch-ΔE and p75-ΔE are overexpressed
Method: (§4) Membrane fractions isolated from 293 cells overexpressing either APP (A), Notch-AE (B) or p75-AE (C) and incubated in the presence of indicated compounds: Compound E (CpdE, general γ-secretase inhibitor), Rgk351, Rk1 and sulindac sulfide (SS).

[4] = molecular target: T2, γ-secretase cleavage of p75 neurotrophin receptor (p75-ICD) (Homo sapiens, UniProt P49768); assay: Cell-free generation of p75-ICD from membrane fractions of 293 cells overexpressing p75-AE; assay type: biochemical
T2 construct: Membrane fractions isolated from 293 cells overexpressing either APP (A), Notch-AE (B) or p75-AE (C); endogenous in cells; host or cells: 293 cells (membrane fractions); only the substrates APP, Notch-ΔE and p75-ΔE are overexpressed
Method: as §4

γ-secretase = γ-secretase (Homo sapiens, UniProt P49768); assay: Cell-free γ-secretase assay (CHAPSO-solubilized membrane fractions, recombinant substrates, Aβ ELISA); assay type: biochemical; conditions: for Aβ42 generation in vitro: FIG. 15 (100 μM in A)
Method: (A) CHAPSO-solubilized membrane fractions were incubated with recombinant γ-secretase substrates together with the indicated compounds (at 100 μM) and the levels of Aβ42 and Aβ40 were determined by ELISA as described (27-29). (B) Dose-response of Aβ40 and Aβ42-lowering activity of Rk1 and (20S)Rg3 in a cell-free γ-secretase assay.
Next, the inhibitory effects of Rk1 and (20S)Rg3 on Aβ generation in an in vitro γ-secretase assay was studied. […] In contrast, naproxen, an NSAID without Aβ42-lowering activity, had no effects on Aβ42 production (FIG. 15A).

[5] = molecular target: T3, γ-secretase cleavage of APP (AICD) (Homo sapiens, UniProt P49768); assay: Cell-free generation of AICD from membrane fractions of 293 cells overexpressing APP; assay type: biochemical
T3 construct: Membrane fractions isolated from 293 cells overexpressing either APP (A), Notch-AE (B) or p75-AE (C); endogenous in cells; host or cells: 293 cells (membrane fractions); only the substrates APP, Notch-ΔE and p75-ΔE are overexpressed
Method: as §4

[6] = tested on: Aβ42 production, CHO-APP/ΔE9PS1 cells; assay: Secreted Aβ ELISA in CHO cells co-expressing human APP and FAD mutant PS1 (ΔE9, L286V); assay type: cell-based, Chinese hamster; conditions: 50 μM, 8 hrs, FIG. 11B vs 11A
Method: as §2, §3, §1

[7] = tested on: full-length APP and APP C-terminal fragments, Neuro2a-APPsw cells; assay: Western blot analysis of APP processing in neuro2a cells expressing APPsw; assay type: cell-based, mouse; conditions: neuro2a cells expressing APPsw
Source text: (§5) FIG. 13. depicts an analysis of APP processing after Rk1 treatment. Steady-state levels of full-length APP and APP C-terminal fragments (APP-CTFs) were examined by Western blot analysis using anti-R1 antibody. […] Correlated Aβ42 levels for each sample are shown in the bottom panel.

[8] = tested on: Aβ42 production in mammalian cells; conditions: Tae-Wan Kim et al., patent application pending; cited from earlier work
[9] = tested on: full-length APP and APP C-terminal fragments, CHO-APP cells; assay: Western blot analysis of APP processing in CHO-APP cells; assay type: cell-based, Chinese hamster; conditions: cell lysates
Source text: as §5

[10] = tested on: Aβ species, CHO-APP cells; assay: Mass spectrometric analysis of Aβ species produced from CHO-APP cells; assay type: cell-based, Chinese hamster; conditions: mass spectrometry, vs DMSO
Method: Note that treatment leads to a decrease in Aβ42 species (1-42), and elevation in both Aβ37 (1-37) and Aβ38 (1-38). Mass spectrometric analysis of Aβ species were performed as previously described (Wang R, Sweeny D, Gandy S E, Sisodia S S. The profile of soluble amyloid β-protein in cultured cell media. J. Bio. Chem. 1996; 271: 31894-31902).

[11] = tested on: Aβ40 and Aβ42 secretion, primary embryonic cortical neurons; assay: Aβ secretion in primary embryonic cortical neurons derived from Tg2576 transgenic mice; assay type: cell-based, mouse
Source text: Treatment of Rk1 and Rg3 decreased the level of secreted Aβ40 and Aβ42.

## CC(C)=CCC[C@](C)(O)[C@H]1CC[C@]2(C)[C@@H]1[C@H](O)C[C@@H]1[C@@]3(C)CC[C@H](O[C@@H]4O[C@H](CO)[C@@H](O)[C@H](O)[C@H]4O)C(C)(C)[C@@H]3CC[C@]12C [Rh2]
Cell viability; 50 μM treatment
  cell viability: partially affected
Cell viability; summary of Tables 1-3
  affected cell viability (Cytotoxic): Cytotoxic
[1]
  Aβ42-lowering activity: Yes
[2]
  secretion of Aβ42: exhibited Aβ42-lowering effects

## CSc1ccc(/C=C2/C(C)=C(CC(=O)O)c3cc(F)ccc32)cc1 [sulindac sulfide]
[3]; listed as SS
  cell-free generation of NICD: abundantly produced
[3]; listed as sulinac sulfide
  cell-free generation of NICD: did not affect
[1]; overnight treatment, FIG. 12B
  Aβ40 production: slightly affected
[4]; listed as SS
  cell-free generation of p75-ICD: abundantly produced
[4]; listed as sulinac sulfide
  cell-free generation of p75-ICD: did not affect
γ-secretase; cell-free γ-secretase assay
  Aβ42 generation in vitro: potently inhibited
[5]; listed as SS
  cell-free generation of AICD: abundantly produced
[5]; listed as sulinac sulfide
  cell-free generation of AICD: did not affect

## CC(C)=CC/C=C(\C)[C@H]1CC[C@]2(C)[C@@H]1[C@H](O)C[C@@H]1[C@@]3(C)CC[C@H](O[C@@H]4O[C@H](CO)[C@@H](O)[C@H](O)[C@H]4O[C@@H]4O[C@H](CO)[C@@H](O)[C@H](O)[C@H]4O)C(C)(C)[C@@H]3CC[C@]12C [Rg5]
[1]; 50 μg/ml, 8 hrs, FIG. 4
  generation of Aβ42 (Aβ42 levels in the medium, ELISA, normalized to intracellular full-length APP): reduce the generation of Aβ42
[1]; CHO-APP cells
  Aβ42-lowering effect compared with other agents: much smaller
[1]
  preference for Aβ42 vs. Aβ40 in cell-based assay: preferentially reduced Aβ42 (vs. Aβ40)
  production of Aβ42 in cells: lower the production of Aβ42
  Aβ42-lowering activity: Yes
[1]; dose-dependent, FIG. 5 / FIG. 12A
  Aβ42 in the medium, dose-response: reduced Aβ42; also recorded: lower Aβ42 in a dose-dependent manner
[1]; overnight treatment, FIG. 12B
  Aβ42 production: reduce Aβ42 production
[6]
  Aβ42-lowering response in PS1 ΔE9 FAD mutant cells compared to PS1 wild-type cells: diminished
[7]
  APP C-terminal fragments, steady-state levels: increased accumulation
[8]
  production of Aβ42 in mammalian cells: lower the production of Aβ42
[2]
  potency of Aβ42-reducing activity (rank): Rk1>/=(20S)Rg3>Rg5>(20R)Rg3; also recorded: less effective
  secretion of Aβ42: selectively lowered the secretion of Aβ42
[2]; wild-type or FAD mutant presenilin 1, FIG. 8
  effects on Aβ42 generation compared to Rgk351 and Rk1: much smaller
[9]
  APP C-terminal fragments (γ-secretase substrates), steady-state levels: increased accumulation
  full-length APP levels: not affected

## CC(C)=CCCC(C)(O)C1CCC2(C)C1C(O)CC1C3(C)CCC(OC4OC(CO)C(O)C(O)C4OC4OC(CO)C(O)C(O)C4O)C(C)(C)C3CCC12C [(20S)Rg3]
[1]
  preference for Aβ42 vs. Aβ40 in cell-based assay: primarily affect Aβ42 production
  production of Aβ42 in cells: lower the production of Aβ42
[10]
  Aβ37 (1-37): elevation
  Aβ38 (1-38): elevation
  Aβ42 species (1-42): decrease
[6]
  Aβ42-lowering response in PS1 ΔE9 FAD mutant cells compared to PS1 wild-type cells: diminished
[8]
  production of Aβ42 in mammalian cells: lower the production of Aβ42
γ-secretase; FIG. 15
  Aβ generation in a cell-free γ-secretase assay: inhibits Aβ generation
γ-secretase; cell-free γ-secretase assay
  Aβ42 generation in vitro: inhibited both Aβ40 and Aβ42 with a similar potency
γ-secretase; cell-free γ-secretase assay, FIG. 15B
  Aβ40 generation in vitro: inhibited both Aβ40 and Aβ42 with a similar potency
γ-secretase; cell-free γ-secretase assay, FIG. 15B, read-out: IC50 for Aβ40
  IC50: 27 ± 4 µM
γ-secretase; cell-free γ-secretase assay, FIG. 15B, read-out: IC50 for Aβ42
  IC50: 26 ± 7 µM
[11]
  level of secreted Aβ40: decreased
  level of secreted Aβ42: decreased
[2]
  potency of Aβ42-reducing activity (rank): Rk1>/=(20S)Rg3>Rg5>(20R)Rg3; also recorded: highest
  secretion of Aβ42: selectively lowered the secretion of Aβ42
